Assay results from patent US6358885B1, “Substituted phenylheterocyclic herbicides” (Mississippi State University, priority 1992, dated 2002).

What was measured:
[1] = test system: morningglory; test: Test C preemergence/postemergence greenhouse plant response rating 0 to 100; format: in vivo, Ipomoea hederacea; details: POSTEMERGENCE; for Plant response rating, Morningglory: 0 to 100 scale
How it was run: (§1)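 Compounds in non-phytotoxic solvent applied preemergence to sandy loam one day after planting, postemergence at the 1–4 leaf stage, or to ~2.5 cm floodwater over silt loam.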

[2] = test system: barley; test: Test B preemergence/postemergence greenhouse plant response rating 0 to 10; format: in vivo, Hordeum vulgare; details: 0 to 10 scale
How it was run: (§2)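 Test chemicals were sprayed onto freshly planted seed and, concurrently, onto young plants between the one and four leaf stage. After a twelve- to sixteen-day greenhouse period, each species was visually compared with untreated controls.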

[3] = test system: rice; test: as above; format: in vivo, Oryza sativa; details: 0 to 10 scale
How it was run: as §2

[4] = test system: crabgrass; test: as above; format: in vivo, Digitaria spp.; details: 0 to 10 scale
How it was run: as §2

[5] = test system: umbrella sedge; test: Test C flood test plant response rating 0 to 100; format: in vivo, Cyperus difformis; details: for Plant response rating (0 to 100), Umbrella sedge: under POSTEMERGENCE head (flood test species); for Plant response rating Umbrella sedge: flood test species listed under POSTEMERGENCE, 0 to 100 scale
How it was run: as §1

[6] = test system: blackgrass; test: Test B preemergence/postemergence greenhouse plant response rating 0 to 10; format: in vivo, Alopecurus myosuroides; details: 0 to 10 scale
How it was run: as §2

[7] = test system: barnyardgrass; test: Test C flood test plant response rating 0 to 100; format: in vivo, Echinochloa crus-galli; details: for Plant response rating (0 to 100), Barnyardgrass 2: under POSTEMERGENCE head (flood test species); for Plant response rating Barnyardgrass 2: flood test species listed under POSTEMERGENCE, 0 to 100 scale
How it was run: as §1

[8] = test system: soybean; test: Test B preemergence/postemergence greenhouse plant response rating 0 to 10; format: in vivo, Glycine max; details: 0 to 10 scale
How it was run: as §2

[9] = test system: purple nutsedge; test: as above; format: in vivo, Cyperus rotundus; details: 0 to 10 scale
How it was run: as §2

[10] = test system: cocklebur; test: as above; format: in vivo, Xanthium pensylvanicum; details: 0 to 10 scale
How it was run: as §2

[11] = test system: sorghum; test: Test C preemergence/postemergence greenhouse plant response rating 0 to 100; format: in vivo, Sorghum bicolor; details: POSTEMERGENCE; for Plant response rating, Sorghum: 0 to 100 scale
How it was run: as §1

[12] = test system: sugar beet; test: Test B preemergence/postemergence greenhouse plant response rating 0 to 10; format: in vivo, Beta vulgaris; details: 0 to 10 scale
How it was run: as §2

[13] = test system: lambsquarters; test: as above; format: in vivo, Chenopodium album; details: 0 to 10 scale
How it was run: as §2

[14] = test system: corn; test: Test C preemergence/postemergence greenhouse plant response rating 0 to 100; format: in vivo, Zea mays; details: POSTEMERGENCE; for Plant response rating, Corn: 0 to 100 scale
How it was run: as §1

[15] = test system: bedstraw; test: Test B preemergence/postemergence greenhouse plant response rating 0 to 10; format: in vivo, Galium aparine; details: 0 to 10 scale
How it was run: as §2

[16] = test system: rape; test: as above; format: in vivo, Brassica napus; details: 0 to 10 scale
How it was run: as §2

[17] = test system: pigweed; test: Test C preemergence/postemergence greenhouse plant response rating 0 to 100; format: in vivo, Amaranthusretroflexus; details: POSTEMERGENCE; for Plant response rating Pigweed: 0 to 100 scale
How it was run: as §1

[18] = test system: rice; test: Test C flood test plant response rating 0 to 100; format: in vivo, Oryza sativa; details: for Plant response rating (0 to 100), Rice Japonica: under POSTEMERGENCE head (flood test species); for Plant response rating Rice Japonica: flood test species listed under POSTEMERGENCE, 0 to 100 scale
How it was run: as §1

SMILES: CCOC(=O)COc1cc(-c2nn3c(c2Cl)CCCC3)c(F)cc1Cl [Compound 42]
- Plant response rating, Morningglory ([1]; 62 g/ha): 100
- Plant response rating, Morningglory ([1]; 125 g/ha): 100
- Plant response rating (0 to 100), Morningglory ([1]; Rate 16 g/ha): 90
- Plant response rating (0 to 100), Morningglory ([1]; Rate 31 g/ha): 95
- Plant response rating, Barley ([2]; POSTEMERGENCE, Rate 50 g/ha): 3
- Plant response rating, Barley ([2]; POSTEMERGENCE, Rate 200 g/ha): 4
- Plant response rating, Barley ([2]; PREEMERGENCE, Rate 50 g/ha): 0
- Plant response rating, Barley ([2]; Rate 200 g/ha, PREEMERGENCE): 0
- Plant response rating, Rice ([3]; POSTEMERGENCE, Rate 50 g/ha): 4
- Plant response rating, Rice ([3]; PREEMERGENCE, Rate 50 g/ha): 0
- Plant response rating, Rice ([3]; Rate 200 g/ha, POSTEMERGENCE): 6
- Plant response rating, Rice ([3]; Rate 200 g/ha, PREEMERGENCE): 2
- Plant response rating, Crabgrass ([4]; POSTEMERGENCE, Rate 50 g/ha): 2
- Plant response rating, Crabgrass ([4]; POSTEMERGENCE, Rate 200 g/ha): 3
- Plant response rating, Crabgrass ([4]; PREEMERGENCE, Rate 50 g/ha): 0
- Plant response rating, Crabgrass ([4]; Rate 200 g/ha, PREEMERGENCE): 0
- Plant response rating (0 to 100), Umbrella sedge ([5]; Rate 16 g/ha): 0
- Plant response rating (0 to 100), Umbrella sedge ([5]; Rate 31 g/ha): 10
- Plant response rating Umbrella sedge ([5]; 62 g/ha): 70
- Plant response rating Umbrella sedge ([5]; 125 g/ha): 90
- Plant response rating, Blackgrass ([6]; POSTEMERGENCE, Rate 50 g/ha): 2
- Plant response rating, Blackgrass ([6]; POSTEMERGENCE, Rate 200 g/ha): 3
- Plant response rating, Blackgrass ([6]; PREEMERGENCE, Rate 50 g/ha): 0
- Plant response rating, Blackgrass ([6]; Rate 200 g/ha, PREEMERGENCE): 0
- Plant response rating (0 to 100), Barnyardgrass 2 ([7]; Rate 16 g/ha): 0
- Plant response rating (0 to 100), Barnyardgrass 2 ([7]; Rate 31 g/ha): 20
- Plant response rating Barnyardgrass 2 ([7]; 62 g/ha): 40
- Plant response rating Barnyardgrass 2 ([7]; 125 g/ha): 60
- Plant response rating, Soybean ([8]; POSTEMERGENCE, Rate 50 g/ha): 4
- Plant response rating, Soybean ([8]; PREEMERGENCE, Rate 50 g/ha): 0
- Plant response rating, Soybean ([8]; Rate 200 g/ha, POSTEMERGENCE): 5
- Plant response rating, Soybean ([8]; Rate 200 g/ha, PREEMERGENCE): 0
- Plant response rating, Nutsedge ([9]; POSTEMERGENCE, Rate 50 g/ha): 2
- Plant response rating, Nutsedge ([9]; PREEMERGENCE, Rate 50 g/ha): 0
- Plant response rating, Nutsedge ([9]; Rate 200 g/ha, POSTEMERGENCE): 5
- Plant response rating, Nutsedge ([9]; Rate 200 g/ha, PREEMERGENCE): 0
- Plant response rating, Cocklebur ([10]; POSTEMERGENCE, Rate 50 g/ha): 10
- Plant response rating, Cocklebur ([10]; POSTEMERGENCE, Rate 200 g/ha): 10
- Plant response rating, Cocklebur ([10]; PREEMERGENCE, Rate 50 g/ha): 0
- Plant response rating, Cocklebur ([10]; Rate 200 g/ha, PREEMERGENCE): 0
- Plant response rating, Sorghum ([11]; 62 g/ha): 60
- Plant response rating, Sorghum ([11]; 125 g/ha): 70
- Plant response rating (0 to 100), Sorghum ([11]; Rate 16 g/ha): 40
- Plant response rating (0 to 100), Sorghum ([11]; Rate 31 g/ha): 50
- Plant response rating, Sugar beet ([12]; POSTEMERGENCE, Rate 50 g/ha): 10
- Plant response rating, Sugar beet ([12]; PREEMERGENCE, Rate 50 g/ha): 10
- Plant response rating, Sugar beet ([12]; Rate 200 g/ha, POSTEMERGENCE): 10
- Plant response rating, Sugar beet ([12]; Rate 200 g/ha, PREEMERGENCE): 10
- Plant response rating, Lambsquarter ([13]; POSTEMERGENCE, Rate 50 g/ha): 9
- Plant response rating, Lambsquarter ([13]; PREEMERGENCE, Rate 50 g/ha): 9
- Plant response rating, Lambsquarter ([13]; Rate 200 g/ha, POSTEMERGENCE): 10
- Plant response rating, Lambsquarter ([13]; Rate 200 g/ha, PREEMERGENCE): 10
- Plant response rating, Corn ([14]; 62 g/ha): 40
- Plant response rating, Corn ([14]; 125 g/ha): 40
- Plant response rating (0 to 100), Corn ([14]; Rate 16 g/ha): 20
- Plant response rating (0 to 100), Corn ([14]; Rate 31 g/ha): 30
- Plant response rating, Bedstraw ([15]; POSTEMERGENCE, Rate 50 g/ha): 10
- Plant response rating, Bedstraw ([15]; POSTEMERGENCE, Rate 200 g/ha): 9
- Plant response rating, Bedstraw ([15]; PREEMERGENCE, Rate 50 g/ha): 7
- Plant response rating, Bedstraw ([15]; Rate 200 g/ha, PREEMERGENCE): 9
- Plant response rating, Rape ([16]; POSTEMERGENCE, Rate 50 g/ha): 9
- Plant response rating, Rape ([16]; PREEMERGENCE, Rate 50 g/ha): 2
- Plant response rating, Rape ([16]; Rate 200 g/ha, POSTEMERGENCE): 10
- Plant response rating, Rape ([16]; Rate 200 g/ha, PREEMERGENCE): 3
- Plant response rating Pigweed ([17]; 62 g/ha): 90
- Plant response rating Pigweed ([17]; 125 g/ha): 90
- Plant response rating (0 to 100), Pigweed ([17]; Rate 16 g/ha): 90
- Plant response rating (0 to 100), Pigweed ([17]; Rate 31 g/ha): 90
- Plant response rating (0 to 100), Rice Japonica ([18]; Rate 16 g/ha): 0
- Plant response rating (0 to 100), Rice Japonica ([18]; Rate 31 g/ha): 10
- Plant response rating Rice Japonica ([18]; 62 g/ha): 20
- Plant response rating Rice Japonica ([18]; 125 g/ha): 40
